Where two headings read alike, the source gives them in different places.
What was measured:
CYP 1A1/2 = conditions: human
CYP1A2 = format: cell-based, human; conditions: 3-MC 5 μM for 24 h; 3D versus control 2D culture
Method: Then, total RNA was extracted from cell pellets using NucleoSpin RNA (Macherey-Nagel, Hoerdt, France) and the concentration of total RNA was measured with a NanoDrop ND-1000 (NanoDrop Technologies, Wilmington, USA). Total RNA was used for cDNA synthesis using the High Capacity cDNA reverse transcription kit (Applied Biosystems, Saint Aubin, France). Real-time PCR for all genes was performed using SYBR green technology with the Power SYBR Green PCR master mix (Applied Biosystems, Saint Aubin, France) and the CFX384 Real-Time System (Biorad) according to the manufacturer's recommendations. Primer sequences used are described in Tables 2 and 3 below.
The amplification curves were analyzed with the Biorad CFX Manager software using the comparative regression method. GAPDH was used for the normalization of expression data. The relative amount of measured mRNA in samples was determined using the 2-ΔΔCT method where ΔΔCT=(CTtarget-CTGAPDH)sample−(CTtarget-CTGAPDH)calibrator. Final results were expressed as the n-fold differences in target gene expression in tested samples when compared with the mean expression value of calibrator. Values are given for one experiment representative of at least three independent experiments.

[1] = system: primary human hepatocytes (PHH); format: cell-based
Method: After 9 days, immuno-histochemical staining was performed as described hereinabove to detect the presence of phosphorylated H2AX (i.e., γH2Ax), a marker of DNA double-strand break, in the PHH.

[2] = system: primary human hepatocytes (PHH)
Method: PHH either in control 2D culture (2D) or in 3D culture established according to the method of the invention in a collagen matrix (3D) were incubated with the indicated genotoxic drugs at the indicated concentrations (see Table 7) from the start of the culture. After 9 days, PHH were extracted from the collagen matrix by the action of purified collagenase. The cell pellets were resuspended in 0.5% low-melting point agarose and laid on conventional microscope slides covered with regular agarose. The electrophoresis migration was processed and after staining with propidium iodide, at least 100 images were acquired using a fluorescence microscope. The images were analyzed using the Comet Assay IV software. The extent of DNA damage in individual cells was evaluated by the percentage of tail DNA.

[3] = system: primary human hepatocytes (PHH); remark: listed apart in the source
[4] = system: MAPK MEK1/2-ERK1/2 pathway

Compound: Cc1ccc2cc3c(ccc4ccccc43)c3c2c1CC3 [3-MC, 3-methylcholanthrene]
- induction of CYP1A (EROD) activity (CYP 1A1/2): potentialization of 3-methylcholanthrene (3-MC) induction of CYP1A (EROD) activity was only observed in PHH in 3D culture
- CYP1A2 mRNA expression after 3-MC induction (CYP1A2): significantly increased CYP1A2 mRNA expression in PHH in 3D culture as compared to that in PHH in control 2D culture

Compound: Nc1ccc(-c2ccccc2)cc1 [4-ABP, 4-aminobiphenyl]
- PHH with DNA damages (γH2Ax positive cells) ([1]; human): about 50%
- levels of DNA damages in 3D culture, in words [2]: higher (about the double) and dose-dependent levels of DNA damages
- levels of DNA damages (percentage of tail DNA) ([2]; human): about 3%

Compound: N#CC(=C(/N)Sc1ccccc1N)/C(C#N)=C(\N)Sc1ccccc1N [U0126]
- Ki67 / cyclin D1 positive cells after transient MEK/ERK inhibition [3]: No positive cells could be detected
- ERK1/2 activity (ERK1/2 phosphorylation) [4]: strong inhibition of ERK1/2 activity

Compound: aflatoxin B1 [AFB1]
- PHH with DNA damages (γH2Ax positive cells) [1]: about 35%

Source: patent US20210189346A1, “METHOD OF CULTURING PROLIFERATIVE HEPATOCYTES” (INSERM (INSTITUT NATIONAL DE LA SANTÉ ET DE LA RECHERCHE …, priority 2018, published 2021)
